Measured values reported in US8993637B2 (priority 2013, dated 2015).

Experiments:
[1] = test system: mouse FSGS model (adriamycin-induced, BALB/c mice); assay: Mouse FSGS model: renal histopathology (H&E) and Col-IV immunohistochemistry; type: in vivo; conditions: days 14 and 28, Citral 200 mg/kg daily by gavage, p<0.01
Procedure: (§1) A progressive type of mouse FSGS model was used, particularly characterized by EPHLs, a key histopathology index of progression of FSGS, peri-glomerular inflammation, and progressive glomerular hyalinosis/sclerosis. The FSGS model was induced in 8-week-old male BALB/c mice (National Laboratory Animal Center, Taipei, Taiwan) by intravenous injection of a single dose of adriamycin (0.10 mg/10 g body weight) (Pfizer, New York, N.Y.) as described previously. […] Age- and sex-matched BALB/c mice were used as normal controls. Urine samples were collected in metabolic cages on days 3, 7, 14, 21, and 28. Renal cortical tissues and blood samples were collected when the mice were sacrificed and stored appropriately for further analysis. The concentration of urine protein was determined using BCA kits (Pierce, Rockford, Ill.) as described previously and normalized to urine creatinine (Cr) levels measured using kits (Wako Pure Chemical Industries, Osaka, Japan), as described previously. Serum levels of blood urea nitrogen (BUN) and Cr were determined using BUN kits and Cr kits (both from Fuji Dry-Chem Slide, Fuji Film Medical, Tokyo, Japan), as described previously.
(§2) Renal tissues were formalin-fixed, embedded in paraffin, and sections (4 μm) prepared and stained with hematoxylin and eosin (H&E) for renal histopathology as described previously or TUNEL stained for apoptosis as described previously. Renal pathology was examined and renal lesions scored as described previously. For EPHLs and sclerosis, at least 50 glomeruli in sections were examined for each mouse. To detect apoptosis in renal tissues, TUNEL staining was performed using an in situ apoptosis detection kit (Chemicon, Temecula, Calif.) according to the manufacturer's instructions. For immunohistochemistry, methyl Carnoy solution-fixed and paraffin-embedded renal sections were prepared and incubated with goat antibodies against mouse collagen IV (Col-IV) (Southern Biotech, AL) or rabbit antibodies against phosphorylated mouse NF-κB p65 (Cell Signaling Technology, MA), F4/80 (Serotec, Raleigh, N.C.), or CD3 (Serotec), then with horseradish-conjugated rabbit anti-goat IgG antibodies or swine anti-rabbit IgG antibodies (both from Dako, Carpinteria, Calif.). Quantitative image analysis software (Pax-it; Paxcam, VIIIa Park, Ill.) was used to score Col-IV staining and the number of phosphorylated NF-κB p65-, CD3-, F4/80-, or TUNEL-positive cells as described previously.

[2] = test system: renal apoptosis; caspase-3, caspase-8, caspase-9, Bax/Bcl-2; assay: Mouse FSGS model: renal apoptosis (TUNEL), caspases, Bax/Bcl-2 ratio; type: in vivo
Procedure: as §1, §2
Cytoplasmic and nuclear proteins from renal tissues were prepared using a kit (Active Motif, Tokyo, Japan) according to the manufacturer's instructions and target proteins detected by immunoblotting using goat antibodies against mouse Nrf2 or p47^phox, (Santa Cruz Biotechnology, Santa Cruz, Calif.) or rabbit antibodies against mouse NQO1 (Abcam), caspase-3, caspase-8, or caspase-9 (all from Cell Signaling Technology, MA) or Bcl2 or Bax (both from Santa Cruz Biotechnology), then with horseradish-conjugated rabbit anti-goat IgG antibodies or goat-anti-rabbit IgG antibodies (both from Santa Cruz Biotechnology) as described previously. Anti-β-actin antibody (Santa Cruz Biotechnology) was used as internal controls for the nuclear and cytosolic target proteins, respectively. Renal HO-1 levels were measured using a commercial ELISA kit (R&D Systems, Minneapolis, Minn.) according to the manufacturer's instructions.

[3] = test system: CD3+ T cells, F4/80+ macrophages; assay: Mouse FSGS model: renal infiltration of T cells and macrophages (immunohistochemistry); type: in vivo; conditions: days 14 and 28
Procedure: as §1, with “Renal cortical tissues and blood samples were collected when the mice were sacrificed and stored appropriately for further analysis.” left out
Renal tissues were formalin-fixed, embedded in paraffin, and sections (4 μm) prepared and stained with hematoxylin and eosin (H&E) for renal histopathology as described previously or TUNEL stained for apoptosis as described previously. Renal pathology was examined and renal lesions scored as described previously. […]

RAW 264.7 macrophages [4] = assay: ROS production assay in LPS-activated macrophages; type: cell-based, murine; conditions: Citral 10 μg/ml; 30 min before and during LPS (1 μg/ml) stimulation, 0-4 h
Procedure: (§3) ROS production was measured as the relative fluorescence intensity. […] The data are expressed as the mean±SD for three separate experiments. *p<0.05, **p<0.01 compared to the LPS-treated group. RAW-Blue™ cells (Murine macrophages RAW264.7 stably transfected with the NF-κB reporter gene) purchased from InvivoGen (San Diego, Calif.). LPS (from Escherichia coli 0111:B4) and mouse antibodies against phospho-ERK1/2, phospho-JNK1/2, and phospho-p38 (all from Sigma, St. Louis, Mo.). Rabbit antibodies against mouse ERK1, JNK1, and p38, and HRP-labeled second antibodies were purchased from Santa Cruz Biotechnology, and IL-1β, IL-6, and TNF-α ELISA kits from R&D Systems. ROS production assay, NO production assay, NF-κB reporter assay, ELISA, and Western blotting were performed as described previously.

RAW 264.7 macrophages [5] = assay: NO production assay (Griess reaction) in LPS-activated macrophages; type: cell-based, murine; conditions: 30 min preincubation, then 24 h LPS 1 μg/ml; p<0.05
Procedure: as §3

RAW 264.7 macrophages [6] = assay: Pro-inflammatory cytokine ELISA in LPS-activated macrophages; type: cell-based, murine; conditions: LPS 1 μg/ml 24 h, culture medium
Procedure: as §3

[7] = Adverse side effects in animals; conditions: in vivo

CC(C)=CCCC(C)=CC=O (racemic) [Citral, 3,7-dimethyl-2,6-octadienal]
glomerular EPHLs ([1]; H&E): greatly decreased | glomerular hyalinosis/sclerosis ([1]; H&E): greatly decreased | peri-glomerular inflammation ([1]; H&E): greatly decreased | renal Col-IV expression ([1]; immunohistochemistry): markedly inhibited | mature form (p18 fragment) of renal caspase-8 ([2]; FSGS+vehicle vs FSGS+Citral vs normal control mice, data not shown): no detectable difference | renal apoptosis (TUNEL) in the glomerulus ([2]; day 28, p<0.005): significantly inhibited | renal apoptosis (TUNEL) in the renal tubule ([2]; days 14 and 28): significantly inhibited | mature form (p17 fragment) of caspase-3, renal levels ([2]; days 14 and 28, p<0.01): significantly inhibited | mature form (p37 fragment) of caspase-9, renal levels ([2]; days 14 and 28, p<0.05): suppressed | peri-glomerular infiltration of macrophages (F4/80+) ([3]; p<0.005): significantly decreased | renal peri-glomerular infiltration of T cells (CD3+) ([3]; p<0.05): markedly inhibited | LPS-induced increase in ROS production (RAW 264.7 macrophages [4]): reduced | LPS-induced increase in NO generation (RAW 264.7 macrophages [5]): inhibited | secretion level of IL-1β (RAW 264.7 macrophages [6]): inhibited | secretion level of IL-6 (RAW 264.7 macrophages [6]): inhibited | secretion level of TNF-α (RAW 264.7 macrophages [6]): inhibited | adverse side effects to animals [7]: no apparent adverse side effects
